Experimental data from patent US10920265B2, “Compounds and methods for detection of enzymes that remove methyl succinyl groups from epsilon-amino lysine moieties” (Enzo Life Sciences, Inc., priority 2011, dated 2021).
*: point of attachment. AMC = Cc1cc(=O)oc2cc(N*)ccc12

How the values were obtained:
Assay in all cases: Sirtuin activity with fluorogenic lysyl substrates
Type in all cases: biochemical
Details in all cases: 50 μM substrate, 500 μM NAD^+
SIRT3 = target: T1, SIRT3 (Homo sapiens, UniProt Q9NTG7)
T1 construct: purchased ENZO Life Sciences BML-SE270
T1 sequence (Q9NTG7 1-399): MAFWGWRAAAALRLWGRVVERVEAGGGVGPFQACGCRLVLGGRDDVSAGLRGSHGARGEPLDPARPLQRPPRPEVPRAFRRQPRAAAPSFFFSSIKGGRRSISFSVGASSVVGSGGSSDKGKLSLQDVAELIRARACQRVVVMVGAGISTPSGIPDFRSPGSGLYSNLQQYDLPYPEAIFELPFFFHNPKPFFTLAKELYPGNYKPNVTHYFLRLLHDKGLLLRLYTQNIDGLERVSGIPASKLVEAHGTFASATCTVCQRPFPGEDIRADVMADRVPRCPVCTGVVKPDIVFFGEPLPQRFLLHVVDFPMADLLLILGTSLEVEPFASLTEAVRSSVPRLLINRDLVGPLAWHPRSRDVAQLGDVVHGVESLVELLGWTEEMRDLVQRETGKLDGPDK
Description: (§1) The Ac-Lys(Succ.)-AMC substrate was tested for activity with recombinant preparations of human HDACs 1-11, SIRTs 1-4, 6 and 7, a complex of HDAC3 with a fragment of the activating protein NCOR1 and with HeLa nuclear extract, a rich source of active HDACs in their native multiprotein complexes.
(§2) Enzyme and extract catalog products obtained from ENZO Life Sciences included: HDAC1 (Cat. # BML-SE456), HDAC2 (Cat. # BML-SE500), HDAC3 (Cat. # BML-SE507), HDAC3/NCOR1 Complex (Cat. # BML-SE515), HDAC6 (Cat. # BML-SE508), HDAC8 (Cat. # BML-SE145), HDAC10 (Cat. # BML-SE559), HDAC11 (Cat. # BML-SE560), SIRT1 (Cat. # BML-SE239), SIRT2 (Cat. # BML-SE251), SIRT3 (Cat. # BML-SE270), SIRT5 (Cat. # BML-SE555), HeLa Nuclear Extract (Cat. # BML-KI140), Trypsin (“Fluor de Lys Developer”, 80 mg/ml bovine trypsin in 1 mM HCl, Cat. # BML-KI105 or “Fluor de Lys Developer II”, 80 mg/ml bovine trypsin in 1 mM HCl, Cat. # BML-KI176). […] Enzymes obtained from BPS Bioscience, San Diego, Calif. included: human recombinants SIRT4 (Cat. #50015), SIRT6 (Cat. #50017), SIRT7 (Cat. #50018). HeLa whole cell extract was obtained from HeLa S3 cells (American Type Culture Collection) grown in a medium of MEM/10% fetal bovine serum (FBS) as follows: 1) 9×10^6 cells were suspended by trypsinization, followed by a phosphate buffered saline (PBS) rinse and addition of MEM/10% FBS (1.5 mL) to eliminate trypsin before transfer to a 15 mL conical tube; 2) cells were sedimented by a low speed centrifugation, gently resuspended in PBS and sedimented again and supernatant removed; 3) lysis was induced by resuspension in 0.8 mL 50 mM Tris/HCl, pH 8.0 with the non-denaturing detergent NP-40 (0.5%), placement on ice and brief vortexing every 5 min. for 30 min.; 4) 100 μl of a concentrated salt solution in the same buffer was added in order to bring the final buffer composition to 50 mM Tris/C1, pH 8.0, 137 mM NaCl, 2.7 mM KCl, 1 mM MgCl2, 0.5% NP-40; 5) particulate matter was cleared by centrifugation and the cleared lysate supernatant transferred to a 1.5 mL Eppendorf tube and stored on ice until use in activity assays.
(§3) Assays were performed at 37° C., according to the manufacturer's instructions for the “SIRT1 Fluorometric Drug Discovery Kit” from Enzo Life Sciences (ELS) (Cat. # BML-AK555), with exceptions described as follows. Where indicated in figures and text, SIRT1 enzyme was replaced with another enzyme or extract and the “Fluor de Lys-SIRT1 Substrate” (Ac-Arg-His-Lys-Lys(Ac)-AMC; ELS Cat. # BML-KI-177) was replaced with another acetylated, succinylated or trifluoroacetylated substrate.

SIRT7 = target: T2, SIRT7 (Homo sapiens, UniProt Q9NRC8)
T2 construct: purchased BPS Bioscience 50018
T2 sequence (Q9NRC8 1-400): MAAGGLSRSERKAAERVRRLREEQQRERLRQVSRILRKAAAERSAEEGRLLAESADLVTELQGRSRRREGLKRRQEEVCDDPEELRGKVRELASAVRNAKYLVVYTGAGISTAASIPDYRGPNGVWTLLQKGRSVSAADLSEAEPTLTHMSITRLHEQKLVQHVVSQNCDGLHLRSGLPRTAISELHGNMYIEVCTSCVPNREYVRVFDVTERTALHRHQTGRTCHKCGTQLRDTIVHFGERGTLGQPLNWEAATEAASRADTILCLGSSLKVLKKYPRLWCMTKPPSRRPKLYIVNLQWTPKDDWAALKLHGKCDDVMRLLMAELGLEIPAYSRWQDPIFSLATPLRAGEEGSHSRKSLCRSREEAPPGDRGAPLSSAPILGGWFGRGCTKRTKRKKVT
Description: as §1, §2, §3

SIRT6 = target: T3, SIRT6 (Homo sapiens, UniProt Q8N6T7)
T3 construct: purchased BPS Bioscience 50017
Description: as §1, §2, §3

T3 sequence (Q8N6T7 whole entry): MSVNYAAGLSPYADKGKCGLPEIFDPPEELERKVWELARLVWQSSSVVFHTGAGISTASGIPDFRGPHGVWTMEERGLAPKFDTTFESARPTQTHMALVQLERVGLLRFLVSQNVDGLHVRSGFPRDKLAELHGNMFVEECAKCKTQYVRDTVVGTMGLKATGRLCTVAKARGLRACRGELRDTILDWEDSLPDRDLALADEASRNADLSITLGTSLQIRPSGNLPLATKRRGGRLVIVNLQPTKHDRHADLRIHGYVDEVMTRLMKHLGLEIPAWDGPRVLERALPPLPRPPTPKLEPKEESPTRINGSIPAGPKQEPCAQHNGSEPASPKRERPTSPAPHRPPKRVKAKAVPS

Activity (SIRT3) [pmol/min/µg] | Activity (pmol/min/μg) (SIRT7) | Activity (pmol/min/μg) (SIRT3) | Activity (pmol/min/μg) (SIRT6) | Activity (SIRT6) [pmol/min/µg] | Compound
 | Undetectable | Undetectable | Undetectable |  | CC(=O)N[C@@H](CCCCNC(=O)CCC(=O)O)C(=O)Nc1ccc2c(C)cc(=O)oc2c1 [Compound 1, N—(N^α-acetyl-L-Lysine(N^ε-succinyl))-AMC]
0.012 | Undetectable |  |  | 0.074 | CCCCCCCCCCCCCC(=O)NCCCC[C@H](NC(C)=O)C(=O)Nc1ccc2c(C)cc(=O)oc2c1 [Compound 4, N—(N^α-acetyl-L-Lysine(N^ε-myristoyl))-AMC]
 |  |  | Ac-RHKK(Ac)-AMC/0.052 pmol/min/μg |  | Ac-Arg-His-Lys-Lys(ε-acetyl)-AMC (Ac-RHKK(Ac)-{AMC}; SMILES CC(=O)NCCCC[C@H](NC(=O)[C@H](CCCCN)NC(=O)[C@H](Cc1c[nH]cn1)NC(=O)[C@H](CCCNC(=N)N)NC(C)=O)C(=O)Nc1ccc2c(C)cc(=O)oc2c1) [Ac-RHKK(Ac)-AMC, p53 peptide fluorogenic deacetylase substrate, Cat. # BML-KI177, reference compound]

More lines, now with the values behind:

Compound | Activity (SIRT3) [pmol/min/µg] | Activity (pmol/min/μg) (SIRT7) | Activity (pmol/min/μg) (SIRT3) | Activity (pmol/min/μg) (SIRT6) | Activity (SIRT6) [pmol/min/µg]
CC(=O)NCCCCC(NC(C)=O)C(=O)Nc1ccc2c(C)cc(=O)oc2c1 (stereo not drawn) [Ac-Lys(Ac.)-AMC, Ac-Lys(ε-acetyl)-AMC, reference compound] | 0.125 | Undetectable |  |  | 
COC(=O)CCC(=O)NCCCC[C@H](NC(C)=O)C(=O)Nc1ccc2c(C)cc(=O)oc2c1 [Compound 5, N—(N^α-acetyl-L-Lysine(N^ε-methyl succinyl))-AMC] | 0.002 | Undetectable |  |  | 0.006
